Test results taken from patent US20200199247A1, “ANTIBODY CONJUGATES OF IMMUNE-MODULATORY COMPOUNDS AND USES THEREOF” (SILVERBACK THERAPEUTICS, INC., priority 2017, published 2020).
Peptide text beside a SMILES is read from it. * marks the point of attachment. Cbz = O=C(OCc1ccccc1)*

Key:
TGFβR1 [1] = biological target: T1, TGFβR1 (Homo sapiens, UniProt P36897); assay: Cellular level of TGFβR1 in normal human lung fibroblasts with or without proteasome inhibitor (western blot); assay type: cell-based; parameters: endogenous in cells; host or cells: normal human lung fibroblasts
T1 sequence (P36897 34-503): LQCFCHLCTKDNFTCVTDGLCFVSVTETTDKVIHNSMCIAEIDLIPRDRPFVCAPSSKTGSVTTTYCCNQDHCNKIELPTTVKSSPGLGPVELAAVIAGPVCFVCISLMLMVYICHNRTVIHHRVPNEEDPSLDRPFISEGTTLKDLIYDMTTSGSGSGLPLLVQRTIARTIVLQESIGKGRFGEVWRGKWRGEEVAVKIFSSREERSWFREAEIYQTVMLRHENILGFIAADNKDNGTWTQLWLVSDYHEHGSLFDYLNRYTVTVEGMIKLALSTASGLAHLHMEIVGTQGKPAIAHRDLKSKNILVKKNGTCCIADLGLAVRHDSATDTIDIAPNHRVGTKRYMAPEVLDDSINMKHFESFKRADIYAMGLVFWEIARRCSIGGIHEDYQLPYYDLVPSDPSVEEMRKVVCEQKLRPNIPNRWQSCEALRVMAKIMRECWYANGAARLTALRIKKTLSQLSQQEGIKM
Experimental: Cells are plated, allowed to adhere, and treated with vehicle, an inhibitor, a PROTAC or a conjugate in the presence or absence of proteasome inhibitor, such as MG-132. After treatment, media is aspirated and cells are rinsed with ice cold PBS. Ice cold lysis buffer (20 mM TrisHCl pH 7.5, 150 mM NaCl, 1% Triton X-100, 2 mM EDTA and 10% glycerol) containing phosphatase and protease inhibitors is added to wells and cells are removed from the plate using a cell scraper. Lysates are transferred to a 1.5 ml tube and rocked for one hour at 4° C. with vortexing every ˜15 minutes. Tubes are spun at 8500×g for 10 minutes and supernatants are drawn into an insulin needle twice. Cell lysates are frozen at […]. Protein concentration is determined using a BCA assay and equal amounts of samples are boiled with reducing loading buffer. The samples are then subjected to electrophoresis on 4-20% polyacrylamide gels which are then transferred to PVDF membranes. […] Loading controls are detected with 1:15000 diluted primary antibody incubation at room temperature for 1 hour with rocking (Tubulin—Abcam, ab7291; Actin—Abcam, ab8224). […]
Normal human lung fibroblasts were treated with or without proteasome inhibitor MG-132 followed by the addition of DMSO or T-20. Whole cell lysates were prepared and then quantitated with a BCA assay. […] TGFβR1, TGFβR2, and actin were detected using commercially available reagents. […]

TGFβR1 [2] = biological target: T1, TGFβR1; assay: TGFβR1 level in HER2-transfected HEK293 cells (western blot); assay type: cell-based; parameters: Plasmid expressing HER2 was transfected into HEK293 cells; endogenous in cells; host or cells: HEK293 cells transiently transfected with a HER2 plasmid; details: 2, 24 and 48 hours of treatment
Experimental: After treatment, media is aspirated and cells are rinsed with ice cold PBS. Ice cold lysis buffer (20 mM TrisHCl pH 7.5, 150 mM NaCl, 1% Triton X-100, 2 mM EDTA and 10% glycerol) containing phosphatase and protease inhibitors is added to wells and cells are removed from the plate using a cell scraper. Lysates are transferred to a 1.5 ml tube and rocked for one hour at 4° C. with vortexing every ˜15 minutes. Tubes are spun at 8500×g for 10 minutes and supernatants are drawn into an insulin needle twice. Cell lysates are frozen at ˜80° C. Protein concentration is determined using a BCA assay and equal amounts of samples are boiled with reducing loading buffer. […] Loading controls are detected with 1:15000 diluted primary antibody incubation at room temperature for 1 hour with rocking (Tubulin—Abcam, ab7291; Actin—Abcam, ab8224). […]
Plasmid expressing HER2 was transfected into HEK293 cells using commercially available materials and conditions. […] Whole cell lysates were prepared from cells after 2, 24, or 48 hours incubation and quantitated with a BCA assay. Equal amounts of lysates were run on protein gels, transferred to PVDF, and TGFβR2 was detected using commercially available reagents. To quantitate the amount of protein degradation, the signals on the Western blot were adjusted to actin loading control and data is presented as a percent of matched control.

degradation of TGFβR1 (TGFβR1 [1]; 5 μM T-20)	amount of TGFβR1 protein (TGFβR1 [2])	Compound	effect of proteasome inhibitor on T-20 induced degradation of TGFβR1 (TGFβR1 [1]; MG132 10 and 50 μM followed by 5 μM T-20)
degradation induced by T-20	remained fairly constant	Nc1ncc(-c2ccc(CCNC(=O)[C@@H](N)CCCCNC(=O)COc3cccc4c3C(=O)N(C3CCC(=O)NC3=O)C4=O)cc2)nc1C(=O)Nc1cnccc1N1CCOCC1 (stereo partly drawn) [Compound T-20, 3-amino-6-(4-(2-((2S)-2-amino-6-(2-((2-(2,6-dioxopiperidin-3-yl)-1,3-dioxoisoindolin-4-yl)oxy)acetamido)hexanamido)ethyl)phenyl)-N-(4-morpholinopyridin-3-yl)pyrazine-2-carboxamide]	
		CC(C)C[C@@H](C=O)NC(=O)[C@H](CC(C)C)NC(=O)[C@H](CC(C)C)NC(=O)OCc1ccccc1 [MG-132, reference compound] (Cbz-Leu-Leu-Leu-aldehyde)	protected
